The record followed here is US20090012103A1, “SUBSTITUTED HETEROCYCLIC COMPOUNDS” (priority 2007, published 2009).

The test concerns the target wild-type human cardiac sodium channel, hNav1.5 (Homo sapiens, UniProt Q14524). Description: Late INa screening assay (late sodium current, PatchXpress whole cell patch clamp). The test is classed as cell-based. Conditions: for inhibition at 10 µM: read-out: Late INa % blk.

Molecules are shown by their SMILES. Where two headings read alike, the source gives them in different places.

Chain of wild-type human cardiac sodium channel, hNav1.5 (Q14524 whole entry): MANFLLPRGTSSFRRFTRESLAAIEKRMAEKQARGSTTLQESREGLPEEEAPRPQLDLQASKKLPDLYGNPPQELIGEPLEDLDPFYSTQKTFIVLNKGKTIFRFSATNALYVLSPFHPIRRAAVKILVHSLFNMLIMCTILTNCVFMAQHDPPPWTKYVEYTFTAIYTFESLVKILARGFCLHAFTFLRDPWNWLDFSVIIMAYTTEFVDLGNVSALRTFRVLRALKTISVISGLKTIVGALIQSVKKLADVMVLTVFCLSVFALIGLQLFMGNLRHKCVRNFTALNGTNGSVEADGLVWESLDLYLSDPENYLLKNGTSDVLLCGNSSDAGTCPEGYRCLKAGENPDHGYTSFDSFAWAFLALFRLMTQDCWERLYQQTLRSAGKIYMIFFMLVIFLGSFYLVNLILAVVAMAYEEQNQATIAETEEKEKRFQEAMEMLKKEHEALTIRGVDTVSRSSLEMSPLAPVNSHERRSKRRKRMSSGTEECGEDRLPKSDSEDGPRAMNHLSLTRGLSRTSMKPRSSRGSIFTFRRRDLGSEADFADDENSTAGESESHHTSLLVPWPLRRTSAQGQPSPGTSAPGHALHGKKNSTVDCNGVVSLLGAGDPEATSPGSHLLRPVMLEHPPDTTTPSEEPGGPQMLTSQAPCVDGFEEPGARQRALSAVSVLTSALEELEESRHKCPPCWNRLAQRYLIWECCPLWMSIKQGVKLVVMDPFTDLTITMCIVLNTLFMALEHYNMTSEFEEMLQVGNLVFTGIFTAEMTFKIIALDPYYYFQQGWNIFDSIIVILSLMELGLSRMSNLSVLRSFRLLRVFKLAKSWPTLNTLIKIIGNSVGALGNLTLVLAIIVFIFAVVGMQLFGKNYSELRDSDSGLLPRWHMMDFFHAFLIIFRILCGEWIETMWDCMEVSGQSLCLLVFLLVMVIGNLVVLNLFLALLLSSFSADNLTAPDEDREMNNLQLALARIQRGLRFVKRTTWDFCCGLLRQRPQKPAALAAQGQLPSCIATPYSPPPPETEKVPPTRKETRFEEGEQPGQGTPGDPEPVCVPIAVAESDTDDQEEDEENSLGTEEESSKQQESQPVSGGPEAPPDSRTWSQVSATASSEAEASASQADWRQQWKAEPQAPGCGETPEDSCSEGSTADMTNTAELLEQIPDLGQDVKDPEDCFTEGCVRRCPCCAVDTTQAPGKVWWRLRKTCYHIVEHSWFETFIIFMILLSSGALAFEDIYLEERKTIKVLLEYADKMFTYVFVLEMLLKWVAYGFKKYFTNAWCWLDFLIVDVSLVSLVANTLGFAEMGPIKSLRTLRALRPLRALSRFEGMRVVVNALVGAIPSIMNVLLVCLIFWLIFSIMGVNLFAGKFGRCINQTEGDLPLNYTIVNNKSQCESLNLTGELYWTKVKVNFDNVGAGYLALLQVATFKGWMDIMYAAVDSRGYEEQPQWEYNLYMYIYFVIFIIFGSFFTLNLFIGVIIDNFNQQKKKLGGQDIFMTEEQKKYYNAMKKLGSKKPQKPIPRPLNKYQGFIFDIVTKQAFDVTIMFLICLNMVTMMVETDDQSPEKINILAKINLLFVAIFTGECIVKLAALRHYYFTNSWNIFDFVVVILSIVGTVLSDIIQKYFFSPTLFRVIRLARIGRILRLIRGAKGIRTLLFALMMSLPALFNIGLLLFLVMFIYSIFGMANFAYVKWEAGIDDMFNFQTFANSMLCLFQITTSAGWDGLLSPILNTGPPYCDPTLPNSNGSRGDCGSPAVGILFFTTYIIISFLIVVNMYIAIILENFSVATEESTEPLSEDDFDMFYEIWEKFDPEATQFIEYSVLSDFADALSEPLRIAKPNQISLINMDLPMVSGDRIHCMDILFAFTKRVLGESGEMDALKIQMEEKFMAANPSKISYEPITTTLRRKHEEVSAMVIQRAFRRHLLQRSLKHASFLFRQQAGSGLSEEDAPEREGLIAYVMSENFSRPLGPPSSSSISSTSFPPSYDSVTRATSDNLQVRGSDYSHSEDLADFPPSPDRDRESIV

In the case of `CC1=C(C(=O)N2CCN(c3ccccc3)CC2)C(c2ccsc2)C2=C(CCCC2=O)N1` (stereo not shown) [PT-166, 2-methyl-3-(4-phenylpiperazine-1-carbonyl)-4-(thiophen-3-yl)-4,6,7,8-tetrahydroquinolin-5(1H)-one], where the note is “result in words”, the “effect on late sodium current” value is reported as “potentiated late sodium current”.

`CC1=C(C(=O)N2CCN(c3ccc(Cl)cc3)CC2)C(c2ccsc2)C2=C(CCCC2=O)N1` (stereo not shown) [PT-167, 3-(4-(4-chlorophenyl)piperazine-1-carbonyl)-2-methyl-4-(thiophen-3-yl)-4,6,7,8-tetrahydroquinolin-5(1H)-one]: where the note is “compound at 10 μM”, the inhibition at 10 µM is -10%.

Regarding `CC1=C(C(=O)N2CCC(c3ccccc3)CC2)C(c2ccc3ccccc3c2)C2=C(CCCC2=O)N1` (stereo not shown) [PT-169, 2-methyl-4-(naphthalen-2-yl)-3-(4-phenylpiperidine-1-carbonyl)-4,6,7,8-tetrahydroquinolin-5(1H)-one], under “compound at 10 μM”, the inhibition at 10 µM was 11.8%.

Take `CC1=C(C(=O)N2CCC(c3ccccc3)CC2)C(c2cccc3ccccc23)C2=C(CCCC2=O)N1` (stereo not shown) [PT-170, 2-methyl-4-(naphthalen-1-yl)-3-(4-phenylpiperidine-1-carbonyl)-4,6,7,8-tetrahydroquinolin-5(1H)-one]: the inhibition at 10 µM (compound at 10 μM) is 9.8%.

With `CC1=C(C(=O)N2CCc3ccccc3C2)C(c2cccc3ccccc23)C2=C(CCCC2=O)N1` (stereo not shown) [PT-171, 2-methyl-4-(naphthalen-1-yl)-3-(1,2,3,4-tetrahydroisoquinoline-2-carbonyl)-4,6,7,8-tetrahydroquinolin-5(1H)-one], the inhibition at 10 µM (compound at 10 μM) came to 20.2%.

For the compound `CC1=C(C(=O)N2CCC(c3cccc(C(=O)O)c3)CC2)C(c2cccc3ccccc23)C2=C(CCCC2=O)N1` (stereo not shown) [PT-172, 3-(1-(2-methyl-4-(naphthalen-1-yl)-5-oxo-1,4,5,6,7,8-hexahydroquinoline-3-carbonyl)piperidin-4-yl)benzoic acid], the inhibition at 10 µM (compound at 10 μM) came out at 16.3%.

For the compound `CCCC1=C(C(=O)OCC)C(c2ccc(Br)s2)C(C(=O)OCC)=C(CCC)N1` [PT-182, diethyl 4-(5-bromothiophen-2-yl)-2,6-dipropyl-1,4-dihydropyridine-3,5-dicarboxylate], the inhibition at 10 µM (compound at 10 μM) turned out to be 33%.

Regarding `CCOC(=O)C1=C(C)NC2=C(C(=O)c3ccccc32)C1c1cccs1` (stereo not shown) [PT-187, ethyl 2-methyl-5-oxo-4-(thiophen-2-yl)-4,5-dihydro-1H-indeno[1,2-b]pyridine-3-carboxylate], under “compound at 10 μM”, the inhibition at 10 µM is -2.6%.

For `CCOC(=O)C1=C(C)NC2=C(C(=O)CCC2)C1c1cc2cc(OC)ccc2nc1Cl` (stereo not shown) [PT-188, ethyl 2-chloro-6-methoxy-2′-methyl-5′-oxo-1′,4′,5′,6′,7′,8′-hexahydro-3,4′-biquinoline-3′-carboxylate], the inhibition at 10 µM (compound at 10 μM) was -0.8%.

As to `CCOC(=O)C1=C(C)NC2=C(C(=O)CCC2)C1c1cccnc1Cl` (stereo not shown) [PT-189, ethyl 4-(2-chloropyridin-3-yl)-2-methyl-5-oxo-1,4,5,6,7,8-hexahydroquinoline-3-carboxylate], the inhibition at 10 µM (compound at 10 μM) came out at 0.5%.

Regarding `CC1=C(C(=O)OCc2ccccc2)C(c2ccc3ccccc3n2)n2nnnc2N1` (stereo not shown) [PT-196, benzyl 5-methyl-7-(quinolin-2-yl)-4,7-dihydrotetrazolo[1,5-a]pyrimidine-6-carboxylate], where the note is “compound at 10 μM”, the inhibition at 10 µM is 32.5%.

On to `CC1=C(C(=O)OCc2ccccc2)C(c2ccnc3ccccc23)n2nnnc2N1` (stereo not shown) [PT-197, benzyl 5-methyl-7-(quinolin-4-yl)-4,7-dihydrotetrazolo[1,5-a]pyrimidine-6-carboxylate], for which the inhibition at 10 µM (compound at 10 μM) is 21.5%.

Turning to `c1ccc2c(c1)CCC1=C2C(c2cccc3ccccc23)n2nnnc2N1` (stereo not shown) [PT-198, 12-(naphthalen-1-yl)-5,6,7,12-tetrahydrobenzo[f]tetrazolo[5,1-b]quinazoline], the inhibition at 10 µM amounted to 50.9%.

Take `COc1ccc(-c2ccc(COC(=O)C3=C(C)Nc4nnnn4C3c3cccc4ccccc34)cc2)cc1` (stereo not shown) [PT-199, (4′-methoxybiphenyl-4-yl)methyl 5-methyl-7-(naphthalen-1-yl)-4,7-dihydrotetrazolo[1,5-a]pyrimidine-6-carboxylate]: the inhibition at 10 µM (compound at 10 μM) was 20.3%.

With `COC(=O)c1ccc(-c2ccc(COC(=O)C3=C(C)Nc4nnnn4C3c3cccc4ccccc34)cc2)cc1` (stereo not shown) [PT-200, (4′-(methoxycarbonyl)biphenyl-4-yl)methyl 5-methyl-7-(naphthalen-1-yl)-4,7-dihydrotetrazolo[1,5-a]pyrimidine-6-carboxylate], the inhibition at 10 µM (compound at 10 μM) was determined as 7.4%.

In the case of `CCOC(=O)C1=C(C)Nc2nnnn2C1c1ccc(C2C(C(=O)OCC)=C(C)Nc3nnnn32)cc1` (stereo not shown) [PT-201, diethyl 7,7′-(1,4-phenylene)bis(5-methyl-4,7-dihydrotetrazolo[1,5-a]pyrimidine-6-carboxylate)], where the note is “compound at 10 μM”, the inhibition at 10 µM was 7.8%.

Consider `CCOC(=O)C1=C(C)Nc2nnnn2C1c1cccc(C2C(C(=O)OCC)=C(C)Nc3nnnn32)c1` (stereo not shown) [PT-202, diethyl 7,7′-(1,3-phenylene)bis(5-methyl-4,7-dihydrotetrazolo[1,5-a]pyrimidine-6-carboxylate)], for which the inhibition at 10 µM (compound at 10 μM) worked out at 9.7%.

Turning to `CC1=C(c2nnc(-c3ccccc3)o2)C(c2cccc3ccccc23)n2nnnc2N1` (stereo not shown) [PT-203, 2-(5-methyl-7-(naphthalen-1-yl)-4,7-dihydrotetrazolo[1,5-a]pyrimidin-6-yl)-5-phenyl-1,3,4-oxadiazole], the inhibition at 10 µM (compound at 10 μM) stood at 10.9%.

Consider `O=C1OCC(O)=C1C(C1=C(O)COC1=O)c1cccc2ccccc12` [PT-222, 3,3′-(naphthalen-1-ylmethylene)bis(4-hydroxyfuran-2(5H)-one)], for which the inhibition at 10 µM (compound at 10 μM) was determined as 15.8%.

On to `CC1=C(C(=O)OCc2ccccc2)[C@@H](c2ccccc2-c2ccc(C(F)(F)F)cc2)n2nnnc2N1` [PT-236, (R)-benzyl 5-methyl-7-(4′-(trifluoromethyl)biphenyl-2-yl)-4,7-dihydrotetrazolo[1,5-a]pyrimidine-6-carboxylate], for which, where the note is “compound at 10 μM”, the inhibition at 10 µM turned out to be 68%.

Regarding `CC1=C(C(=O)OCc2ccccc2)[C@@H](c2ccccc2-c2cccc(C(N)=O)c2)n2nnnc2N1` [PT-238, (R)-benzyl 7-(3′-carbamoylbiphenyl-2-yl)-5-methyl-4,7-dihydrotetrazolo[1,5-a]pyrimidine-6-carboxylate], the inhibition at 10 µM (compound at 10 μM) was found to be 49.9%.

Consider `CC1=C(C(=O)OCc2ccccc2)[C@@H](c2ccccc2-c2cccc(C#N)c2)n2nnnc2N1` [PT-239, (R)-benzyl 7-(3′-cyanobiphenyl-2-yl)-5-methyl-4,7-dihydrotetrazolo[1,5-a]pyrimidine-6-carboxylate], for which, for the setting “compound at 10 μM”, the inhibition at 10 µM turned out to be 94.8%.

Regarding `CC1=C(C(=O)OCc2ccccc2)[C@@H](c2ccccc2-c2cccc(F)c2)n2nnnc2N1` [PT-240, (R)-benzyl 7-(3′-fluorobiphenyl-2-yl)-5-methyl-4,7-dihydrotetrazolo[1,5-a]pyrimidine-6-carboxylate], the inhibition at 10 µM (compound at 10 μM) amounted to 85%.

Turning to `COc1cccc(-c2ccccc2[C@@H]2C(C(=O)OCc3ccccc3)=C(C)Nc3nnnn32)c1` [PT-241, (R)-benzyl 7-(3′-methoxybiphenyl-2-yl)-5-methyl-4,7-dihydrotetrazolo[1,5-a]pyrimidine-6-carboxylate], for the setting “compound at 10 μM”, the inhibition at 10 µM turned out to be 77.1%.

For `CC1=C(C(=O)OCc2ccccc2)[C@@H](c2ccccc2-c2ccc(C(N)=O)cc2)n2nnnc2N1` [PT-242, (R)-benzyl 7-(4′-carbamoylbiphenyl-2-yl)-5-methyl-4,7-dihydrotetrazolo[1,5-a]pyrimidine-6-carboxylate], the inhibition at 10 µM (compound at 10 μM) was 11%.

Regarding `CC1=C(C(=O)OCc2ccccc2)[C@@H](c2ccccc2-c2ccc(C#N)cc2)n2nnnc2N1` [PT-243, (R)-benzyl 7-(4′-cyanobiphenyl-2-yl)-5-methyl-4,7-dihydrotetrazolo[1,5-a]pyrimidine-6-carboxylate], the inhibition at 10 µM (compound at 10 μM) came to 91.5%.

`CC1=C(C(=O)OCc2ccccc2)C(c2ccccc2-c2cccc(C(=O)O)c2)C2=C(CCCC2=O)N1` (stereo not shown) [PT-248, 2′-(3-(benzyloxycarbonyl)-2-methyl-5-oxo-1,4,5,6,7,8-hexahydroquinolin-4-yl)biphenyl-3-carboxylic acid]: the inhibition at 10 µM (compound at 10 μM) was 27.2%.

`CCOC(=O)C1=C(C)NC2=C(C(=O)CCC2)C1c1ccccc1-c1ccc(C(=O)O)cc1` (stereo not shown) [PT-250, 2′-(3-(ethoxycarbonyl)-2-methyl-5-oxo-1,4,5,6,7,8-hexahydroquinolin-4-yl)biphenyl-4-carboxylic acid]: the inhibition at 10 µM (compound at 10 μM) was found to be 7.6%.

With `COC(=O)c1ccc(OCCOC(=O)C2=C(C)Nc3nnnn3C2c2cccc3ccccc23)cc1` (stereo not shown) [PT-251, 2-(4-(methoxycarbonyl)phenoxy)ethyl 5-methyl-7-(naphthalen-1-yl)-4,7-dihydrotetrazolo[1,5-a]pyrimidine-6-carboxylate], under “compound at 10 μM”, the inhibition at 10 µM is 11.5%.

On to `CC1=C(C(=O)OCc2ccccc2)C(c2ccccc2-c2cccc(C(=O)O)c2)n2nnnc2N1` (stereo not shown) [PT-253, 2′-(6-(benzyloxycarbonyl)-5-methyl-4,7-dihydrotetrazolo[1,5-a]pyrimidin-7-yl)biphenyl-3-carboxylic acid], for which the inhibition at 10 µM (compound at 10 μM) came to 9.1%.

Turning to `CC1=C(C(=O)OCc2ccccc2)C(c2ccccc2B(O)O)n2nnnc2N1` (stereo not shown) [PT-255, 2-(6-(benzyloxycarbonyl)-5-methyl-4,7-dihydrotetrazolo[1,5-a]pyrimidin-7-yl)phenylboronic acid], for the setting “compound at 10 μM”, the inhibition at 10 µM amounted to 20.6%.

`CC1=C(C(=O)OCc2ccccc2)C(c2sccc2B(O)O)n2nnnc2N1` (stereo not shown) [PT-256, 2-(6-(benzyloxycarbonyl)-5-methyl-4,7-dihydrotetrazolo[1,5-a]pyrimidin-7-yl)thiophen-3-ylboronic acid]: for the setting “compound at 10 μM”, the inhibition at 10 µM amounted to 25.7%.

Regarding `CC1=C(C(=O)OCc2ccccc2)C(c2cccc3ccccc23)n2nnnc2N1CC(=O)O` (stereo not shown) [PT-257, 2-(6-(benzyloxycarbonyl)-5-methyl-7-(naphthalen-1-yl)tetrazolo[1,5-a]pyrimidin-4(7H)-yl)acetic acid], for the setting “compound at 10 μM”, the inhibition at 10 µM worked out at 7.4%.

For the compound `CCOC(=O)C1=C(C)N(CC(=O)O)c2nnnn2C1c1cccc2ccccc12` (stereo not shown) [PT-258, 2-(6-(ethoxycarbonyl)-5-methyl-7-(naphthalen-1-yl)tetrazolo[1,5-a]pyrimidin-4(7H)-yl)acetic acid], where the note is “compound at 10 μM”, the inhibition at 10 µM was 1.6%.
